Assay results published in patent publication US9834549B2, “3,3-disubstituted-(8-aza-bicyclo[3.2.1]OCT-8-yl)-[5-(1H-pyrazol-4-yl)-thiophen-3-yl]-methanones as inhibitors of 11 (β)-HSD1” (The University Of Edinburgh, priority 2010, dated 2017).

What was measured:
[1] = target: T1, human 11β-HSD2 (Homo sapiens, UniProt P80365); assay: Cellular in vitro 11β-HSD2 enzyme inhibition assay (CHO cells); format: cell-based; details: CHO cells transfected with human 11β-HSD2
T1 construct: CHO cells stably transfected with the full-length gene coding for human 11β-HSD2 were used; expressed in transfected cells; host or cells: CHO (stably transfected)
T1 sequence (P80365 1-405): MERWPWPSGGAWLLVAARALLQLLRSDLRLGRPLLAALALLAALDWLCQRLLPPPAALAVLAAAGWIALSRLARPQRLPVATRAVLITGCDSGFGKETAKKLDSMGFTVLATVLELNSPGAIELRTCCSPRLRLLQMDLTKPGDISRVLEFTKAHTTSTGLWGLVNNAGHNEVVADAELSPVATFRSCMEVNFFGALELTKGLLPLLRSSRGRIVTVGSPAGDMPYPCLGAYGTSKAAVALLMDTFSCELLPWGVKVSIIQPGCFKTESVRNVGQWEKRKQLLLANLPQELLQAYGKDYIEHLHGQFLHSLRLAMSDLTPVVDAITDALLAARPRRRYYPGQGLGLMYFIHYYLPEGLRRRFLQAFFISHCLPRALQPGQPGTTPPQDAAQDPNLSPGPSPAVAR
Description: For measurement of inhibition of 11β-HSD2, CHO cells stably transfected with the full-length gene coding for human 11β-HSD2 were used. Assays were carried out in 96-well microplates containing 1×10^5 cells/well. Controls and compounds were plated as above, so that the final DMSO concentration in each well was 1%. To initiate the assay, 90 μL of a solution of HAMS F-12 medium containing 1% glutamine, 1% penicillin and streptomycin, and 22 nM tritiated cortisol was added to each well of the assay plate. The plate was then incubated in 5% CO2, 95% O2 at 37° C. for 16 hours.
The assay solutions were transferred to glass tubes and […] added to each tube. Each tube was vortexed thoroughly and the upper layer containing the tritiated steroid transferred to a fresh glass tube. The solvent was evaporated by placing the tubes in a heating block at 65° C. under a stream of nitrogen gas. 20 μL ethanol was added to each of the dried samples and vortexed briefly. Each sample was applied to a silica TLC plate and the plate dried. The plate was placed vertically in a glass tank containing 92% chloroform: 8% ethanol and the solvent allowed to rise up the plate. The plate was dried, placed in an imaging cassette, and overlayed with a tritium imaging plate for 1-2 days. The amount of enzyme inhibition in each sample was determined by measuring the intensity of the substrate and product spots using a phospho-imager. IC50 values for inhibitors were determined as described above for 11β-HSD1.

[2] = Oral exposure and tissue distribution in rats; format: in vivo, male Sprague Dawley rats; details: rat, oral 10 mg/kg; for Cmax: male, Sprague Dawley, plasma, read-out: Plasma Cmax (maximum plasma concentration)
Description: The circulating plasma levels and tissue distribution of certain compounds were determined following oral administration of compound (10 mg/kg) to male Sprague Dawley rats. Rats (n=3 per group) were culled at 1, 4 and 6 hours post dosing and trunk blood and tissues (liver, adipose and brain) excised. Blood samples at 30 minutes and 2 hours post dosing were taken by tail nick from the 4 hour and 6 hour rats respectively.
Compound was triple extracted from plasma (prepared from blood by a high speed centrifugation step) spiked with 1 μg of a standard compound using ethyl acetate. Extracts were dried under nitrogen and re-suspended in 60% methanol/40% ammonium acetate (5 mM).
A known weight of tissue was homogenized in 3 volumes Krebs buffer. Compound was triple extracted with ethyl acetate from the supernatant of a low speed spin spiked with 1 μg of a standard compound. Extracts were dried under nitrogen and re-suspended in 60% methanol/40% ammonium acetate (5 mM).
Samples from plasma and tissue were analyzed by TSQ Quantum Discovery Tandem Mass Spectrometer and Surveyor Liquid Chromatogram (Thermo, Hemel-Hempstead, UK). 10 μL of each sample was injected in a mobile phase consisting of 60%:40% methanol:5 mM ammonium acetate at a flow rate of 0.5 mL/minute. The column used was a BDS hypersil, C18, 50×2.1 mm with a 5 μm particle size.
Each compound was tuned with a spray voltage of 3000 V and a capillary temperature of 300° C. and values for tube lens, CID and product ions were determined.
The peak area for each compound and for the internal standard was determined and the concentration of compound per gram of tissue or mL of plasma was calculated by comparison of the peak area ratio to a standard curve.

Q: With O=C(c1csc(-c2cn[nH]c2)c1)N1C2CCC1CC(O)(c1ncccn1)C2 (stereo not drawn) [XX-20, (3-Hydroxy-3-pyrimidin-2-yl-8-aza-bicyclo[3.2.1]oct-8-yl)-[5-(1H-pyrazol-4-yl)-thiophen-3-yl]-methanone] as the compound, how does the IC50 [1] read?
A: > 10 µM

Q: What about the Cmax [2] of the same compound?
A: > 1000 ng/mL

Q: And the “Liver Cmax (maximum liver concentration)” value [2]?
A: +++ (>5001 +++)

Q: For O=C(c1csc(-c2cn[nH]c2)c1)N1C2CCC1CC(O)(c1nccs1)C2 (stereo not drawn) [XX-29], which IC50 [1] is on record?
A: > 10 µM

Q: And the Cmax [2]?
A: 501 to 1000 ng/mL

Q: What about the “Liver Cmax (maximum liver concentration)” value [2] of the same compound?
A: ++ (3001-5000 ++)
